Reference: ChEMBL document CHEMBL4145597, “BMS-986163, a Negative Allosteric Modulator of GluN2B with Potential Utility in Major Depressive Disorder” (ACS Med Chem Lett, 2018)
Converted amounts (≈) assume the structure as drawn. The source made the active and inactive calls. The calls are words filed in the database; no cut-off is given here.

Key:
[1] = molecular target: T1, Cytochrome P450 3A4 (Homo sapiens, UniProt P08684); assay: Time dependent inhibition of CYP3A4 in human liver microsomes using BFC/BZR as substrate; assay type: ADME
T1 sequence (P08684 whole entry): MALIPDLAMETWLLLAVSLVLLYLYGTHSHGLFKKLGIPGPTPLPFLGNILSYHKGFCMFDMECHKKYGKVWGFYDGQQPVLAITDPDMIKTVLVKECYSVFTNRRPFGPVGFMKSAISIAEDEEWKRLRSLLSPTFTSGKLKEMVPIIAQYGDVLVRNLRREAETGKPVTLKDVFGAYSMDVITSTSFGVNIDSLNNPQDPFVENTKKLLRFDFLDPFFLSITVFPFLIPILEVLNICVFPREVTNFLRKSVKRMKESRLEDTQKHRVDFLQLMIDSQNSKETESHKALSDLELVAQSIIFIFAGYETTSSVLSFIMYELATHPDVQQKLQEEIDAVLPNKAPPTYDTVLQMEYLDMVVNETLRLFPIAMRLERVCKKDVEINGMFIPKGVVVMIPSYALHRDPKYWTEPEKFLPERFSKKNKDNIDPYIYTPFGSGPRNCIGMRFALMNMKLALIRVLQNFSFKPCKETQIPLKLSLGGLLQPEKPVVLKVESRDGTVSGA

[2] = molecular target: T2, Cytochrome P450 2C8 (Homo sapiens, UniProt P10632); assay: Time dependent inhibition of CYP2C8 in human liver microsomes; assay type: ADME
T2 sequence (P10632 whole entry): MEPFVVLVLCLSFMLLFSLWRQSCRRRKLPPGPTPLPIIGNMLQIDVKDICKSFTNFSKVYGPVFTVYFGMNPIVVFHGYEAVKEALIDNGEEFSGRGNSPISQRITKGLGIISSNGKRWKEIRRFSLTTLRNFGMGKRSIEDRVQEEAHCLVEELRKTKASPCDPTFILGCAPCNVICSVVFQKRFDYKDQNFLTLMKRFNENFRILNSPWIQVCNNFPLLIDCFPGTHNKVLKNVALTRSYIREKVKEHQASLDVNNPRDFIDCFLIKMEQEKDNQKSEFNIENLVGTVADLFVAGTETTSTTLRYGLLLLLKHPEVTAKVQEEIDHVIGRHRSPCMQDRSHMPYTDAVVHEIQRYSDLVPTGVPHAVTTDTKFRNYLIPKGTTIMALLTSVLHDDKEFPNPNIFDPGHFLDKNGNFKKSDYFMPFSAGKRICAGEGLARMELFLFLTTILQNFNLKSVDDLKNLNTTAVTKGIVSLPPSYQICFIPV

[3] = molecular target: T3, Cytochrome P450 2B6 (Homo sapiens, UniProt P20813); assay: Time dependent inhibition of CYP2B6 in human liver microsomes; assay type: ADME
T3 sequence (P20813 whole entry): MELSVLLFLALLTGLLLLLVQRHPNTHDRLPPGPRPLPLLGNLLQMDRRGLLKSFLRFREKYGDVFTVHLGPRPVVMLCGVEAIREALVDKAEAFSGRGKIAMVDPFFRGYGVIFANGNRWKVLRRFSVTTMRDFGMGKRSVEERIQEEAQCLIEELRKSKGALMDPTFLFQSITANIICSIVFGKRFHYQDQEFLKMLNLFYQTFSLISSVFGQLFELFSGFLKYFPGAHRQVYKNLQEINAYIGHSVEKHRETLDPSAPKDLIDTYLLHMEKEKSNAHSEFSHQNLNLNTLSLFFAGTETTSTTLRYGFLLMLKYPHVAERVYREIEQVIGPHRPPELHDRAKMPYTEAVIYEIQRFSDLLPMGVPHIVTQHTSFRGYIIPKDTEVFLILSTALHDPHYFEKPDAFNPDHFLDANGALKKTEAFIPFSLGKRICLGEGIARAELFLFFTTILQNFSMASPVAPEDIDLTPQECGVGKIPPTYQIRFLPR

[4] = Prodrug activation in dog assessed as BMS-986169 level in blood at 37 degC; assay type: tissue-based, Canis lupus familiaris
[5] = molecular target: T4, Cytochrome P450 2D6 (Homo sapiens, UniProt P10635); assay: Inhibition of CYP2D6 in human liver microsomes; assay type: ADME
T4 sequence (P10635 whole entry): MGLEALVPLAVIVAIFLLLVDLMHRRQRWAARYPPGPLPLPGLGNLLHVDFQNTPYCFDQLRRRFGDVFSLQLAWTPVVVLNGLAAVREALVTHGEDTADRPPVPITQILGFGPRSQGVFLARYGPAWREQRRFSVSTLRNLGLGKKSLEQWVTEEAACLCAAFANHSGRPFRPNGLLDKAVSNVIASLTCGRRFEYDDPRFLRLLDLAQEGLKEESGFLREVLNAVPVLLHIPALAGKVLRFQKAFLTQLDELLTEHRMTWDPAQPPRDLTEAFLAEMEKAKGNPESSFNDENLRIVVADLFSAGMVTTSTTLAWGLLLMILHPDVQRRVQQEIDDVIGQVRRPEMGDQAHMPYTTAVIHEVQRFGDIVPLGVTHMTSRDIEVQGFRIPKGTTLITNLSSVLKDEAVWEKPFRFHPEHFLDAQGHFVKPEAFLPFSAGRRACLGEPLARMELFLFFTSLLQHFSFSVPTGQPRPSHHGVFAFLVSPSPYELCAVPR

[6] = molecular target: T3, Cytochrome P450 2B6; assay: Inhibition of CYP2B6 in human liver microsomes; assay type: ADME
[7] = Fraction unbound in cynomolgus monkey plasma; assay type: ADME, cell-free, Macaca fascicularis
[8] = Half life in rat liver microsomes; assay type: ADME, microsome
[9] = Dissociation constant, pKa of the compound by spectrophotometric method; assay type: physicochemical
[10] = molecular target: T4, Cytochrome P450 2D6; assay: Time dependent inhibition of CYP2D6 in human liver microsomes; assay type: ADME
[11] = molecular target: T5, Cytochrome P450 2C9 (Homo sapiens, UniProt P11712); assay: Time dependent inhibition of CYP2C9 in human liver microsomes; assay type: ADME
T5 sequence (P11712 whole entry): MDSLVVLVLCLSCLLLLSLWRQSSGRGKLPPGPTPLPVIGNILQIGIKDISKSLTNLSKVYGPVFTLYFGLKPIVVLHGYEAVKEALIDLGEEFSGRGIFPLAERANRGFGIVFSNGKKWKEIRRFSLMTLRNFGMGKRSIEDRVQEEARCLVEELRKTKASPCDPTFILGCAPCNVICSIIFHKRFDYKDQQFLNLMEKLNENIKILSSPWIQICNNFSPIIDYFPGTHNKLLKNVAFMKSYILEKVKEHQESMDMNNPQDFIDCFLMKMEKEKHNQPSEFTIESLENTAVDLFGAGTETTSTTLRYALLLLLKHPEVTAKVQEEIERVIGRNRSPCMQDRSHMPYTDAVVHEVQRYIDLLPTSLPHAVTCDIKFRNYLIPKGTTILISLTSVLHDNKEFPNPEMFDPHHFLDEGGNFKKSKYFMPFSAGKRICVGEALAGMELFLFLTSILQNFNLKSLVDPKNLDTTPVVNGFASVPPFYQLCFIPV

[12] = molecular target: T6, Cytochrome P450 2C19 (Homo sapiens, UniProt P33261); assay: Time dependent inhibition of CYP2C19 in human liver microsomes; assay type: ADME
T6 sequence (P33261 whole entry): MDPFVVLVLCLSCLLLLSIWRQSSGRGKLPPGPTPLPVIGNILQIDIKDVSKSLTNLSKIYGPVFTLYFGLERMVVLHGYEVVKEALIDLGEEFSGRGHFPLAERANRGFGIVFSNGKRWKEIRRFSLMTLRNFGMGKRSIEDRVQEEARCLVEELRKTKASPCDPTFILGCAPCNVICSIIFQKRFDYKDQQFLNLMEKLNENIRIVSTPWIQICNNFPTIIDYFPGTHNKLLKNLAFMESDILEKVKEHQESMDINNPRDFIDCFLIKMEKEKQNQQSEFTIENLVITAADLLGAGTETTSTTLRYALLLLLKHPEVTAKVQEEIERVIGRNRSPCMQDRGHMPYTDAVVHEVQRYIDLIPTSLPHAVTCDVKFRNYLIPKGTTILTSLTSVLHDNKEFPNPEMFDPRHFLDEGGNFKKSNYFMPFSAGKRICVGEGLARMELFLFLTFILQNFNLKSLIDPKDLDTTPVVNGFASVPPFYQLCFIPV

[13] = molecular target: Glutamate receptor ionotropic, NMDA 2A (Homo sapiens) (UniProt Q12879); assay: Negative allosteric modulation of human GluN2A receptor expressed in Xenopus laevis oocytes assessed as inhibition of glutamate/glycine-induced channel current at 3 uM after 10 to 15 mins by two electrode voltage clamp based electrophysiology assay; assay type: cell-based
[14] = molecular target: T1, Cytochrome P450 3A4; assay: Inhibition of CYP3A4 in human liver microsomes using BFC/BZR as substrate; assay type: ADME
[15] = system: Mus musculus; assay: Ex vivo receptor occupancy at GluN2B receptor in CD-1 mouse forebrain membranes assessed as reduction in [3H]Ro 25-6981 receptor labeling at 3 mg/kg, iv incubated for 5 mins by topcount micro scintillation counting method; assay type: functional
[16] = Aqueous solubility of the compound at pH 7.4; assay type: physicochemical; conditions: aqueous medium
[17] = Half life in cynomolgus monkey at 1 mg/kg, iv administered as 5 mins infusion; assay type: ADME, organism-based, Macaca fascicularis; conditions: in vivo
[18] = molecular target: T5, Cytochrome P450 2C9; assay: Inhibition of CYP2C9 in human liver microsomes; assay type: ADME
[19] = Clearance in CD-1 mouse at 1 mg/kg, iv administered as 5 mins infusion; assay type: ADME, organism-based; conditions: in vivo
[20] = Prodrug activation in monkey assessed as BMS-986169 level in blood at 37 degC; assay type: tissue-based, Macaca mulatta; conditions: rhesus monkey
[21] = Octanol/water buffer partition co-efficient, log D of the compound at pH 7.4 by shake-flask method; assay type: physicochemical
[22] = AUClast in cynomolgus monkey at 1 mg/kg, iv administered as 5 mins infusion; assay type: ADME, organism-based, Macaca fascicularis; design: dose 1 mg/kg, route intravenous, time 0 - last; conditions: in vivo
[23] = molecular target: T6, Cytochrome P450 2C19; assay: Inhibition of CYP2C19 in human liver microsomes; assay type: ADME
[24] = Plasma concentration in CD-1 mouse at 0.1 to 1 mg/kg, iv; assay type: ADME, organism-based; conditions: in vivo
[25] = Prodrug activation in human assessed as BMS-986169 level in blood at 37 degC; assay type: tissue-based
[26] = molecular target: Glutamate receptor ionotropic, NMDA 2C (Homo sapiens) (UniProt Q14957); assay: Negative allosteric modulation of human GluN2C receptor expressed in Xenopus laevis oocytes assessed as inhibition of glutamate/glycine-induced channel current at 3 uM after 10 to 15 mins by two electrode voltage clamp based electrophysiology assay; assay type: cell-based
[27] = Clearance in Beagle dog at 1 mg/kg, iv administered as 5 mins infusion; assay type: ADME, organism-based, Canis lupus familiaris; conditions: in vivo
[28] = Fraction unbound in rat plasma; assay type: ADME, cell-free
[29] = system: Cavia porcellus; assay: Cardiotoxicity in guinea pig assessed as increase in QTcB at 2 to 10 mg/kg, iv; assay type: toxicity, organism-based; conditions: in vivo
[30] = molecular target: T7, Cytochrome P450 1A2 (Homo sapiens, UniProt P05177); assay: Time dependent inhibition of CYP1A2 in human liver microsomes; assay type: ADME
T7 sequence (P05177 whole entry): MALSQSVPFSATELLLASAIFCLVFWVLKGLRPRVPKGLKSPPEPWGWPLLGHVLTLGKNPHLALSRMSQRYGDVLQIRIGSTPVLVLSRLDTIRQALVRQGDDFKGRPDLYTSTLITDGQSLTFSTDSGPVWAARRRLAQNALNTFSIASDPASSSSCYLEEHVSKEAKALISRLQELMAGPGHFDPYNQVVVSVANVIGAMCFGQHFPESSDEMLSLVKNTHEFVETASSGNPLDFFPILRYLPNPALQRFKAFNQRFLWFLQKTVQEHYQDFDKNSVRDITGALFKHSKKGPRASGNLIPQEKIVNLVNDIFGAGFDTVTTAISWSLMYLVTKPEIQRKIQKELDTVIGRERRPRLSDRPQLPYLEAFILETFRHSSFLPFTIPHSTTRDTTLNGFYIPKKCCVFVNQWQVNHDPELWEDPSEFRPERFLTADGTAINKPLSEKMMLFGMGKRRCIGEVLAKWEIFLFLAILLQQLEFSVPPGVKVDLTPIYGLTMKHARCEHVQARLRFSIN

[31] = Unbound plasma concentration in guinea pig at 2 to 10 mg/kg, iv; assay type: ADME, organism-based, Cavia porcellus; conditions: in vivo
[32] = Fraction unbound in human plasma; assay type: ADME, cell-free
[33] = Binding affinity to GluN2B receptor in cynomolgus monkey cortex; design: species or system Macaca fascicularis
[34] = molecular target: Glutamate receptor ionotropic, NMDA 2D (Homo sapiens) (UniProt O15399); assay: Negative allosteric modulation of human GluN2D receptor expressed in Xenopus laevis oocytes assessed as inhibition of glutamate/glycine-induced channel current at 3 uM after 10 to 15 mins by two electrode voltage clamp based electrophysiology assay; assay type: cell-based
Sequence of Glutamate receptor ionotropic, NMDA 2D (Homo sapiens) (O15399 whole entry, the tested form may be a part): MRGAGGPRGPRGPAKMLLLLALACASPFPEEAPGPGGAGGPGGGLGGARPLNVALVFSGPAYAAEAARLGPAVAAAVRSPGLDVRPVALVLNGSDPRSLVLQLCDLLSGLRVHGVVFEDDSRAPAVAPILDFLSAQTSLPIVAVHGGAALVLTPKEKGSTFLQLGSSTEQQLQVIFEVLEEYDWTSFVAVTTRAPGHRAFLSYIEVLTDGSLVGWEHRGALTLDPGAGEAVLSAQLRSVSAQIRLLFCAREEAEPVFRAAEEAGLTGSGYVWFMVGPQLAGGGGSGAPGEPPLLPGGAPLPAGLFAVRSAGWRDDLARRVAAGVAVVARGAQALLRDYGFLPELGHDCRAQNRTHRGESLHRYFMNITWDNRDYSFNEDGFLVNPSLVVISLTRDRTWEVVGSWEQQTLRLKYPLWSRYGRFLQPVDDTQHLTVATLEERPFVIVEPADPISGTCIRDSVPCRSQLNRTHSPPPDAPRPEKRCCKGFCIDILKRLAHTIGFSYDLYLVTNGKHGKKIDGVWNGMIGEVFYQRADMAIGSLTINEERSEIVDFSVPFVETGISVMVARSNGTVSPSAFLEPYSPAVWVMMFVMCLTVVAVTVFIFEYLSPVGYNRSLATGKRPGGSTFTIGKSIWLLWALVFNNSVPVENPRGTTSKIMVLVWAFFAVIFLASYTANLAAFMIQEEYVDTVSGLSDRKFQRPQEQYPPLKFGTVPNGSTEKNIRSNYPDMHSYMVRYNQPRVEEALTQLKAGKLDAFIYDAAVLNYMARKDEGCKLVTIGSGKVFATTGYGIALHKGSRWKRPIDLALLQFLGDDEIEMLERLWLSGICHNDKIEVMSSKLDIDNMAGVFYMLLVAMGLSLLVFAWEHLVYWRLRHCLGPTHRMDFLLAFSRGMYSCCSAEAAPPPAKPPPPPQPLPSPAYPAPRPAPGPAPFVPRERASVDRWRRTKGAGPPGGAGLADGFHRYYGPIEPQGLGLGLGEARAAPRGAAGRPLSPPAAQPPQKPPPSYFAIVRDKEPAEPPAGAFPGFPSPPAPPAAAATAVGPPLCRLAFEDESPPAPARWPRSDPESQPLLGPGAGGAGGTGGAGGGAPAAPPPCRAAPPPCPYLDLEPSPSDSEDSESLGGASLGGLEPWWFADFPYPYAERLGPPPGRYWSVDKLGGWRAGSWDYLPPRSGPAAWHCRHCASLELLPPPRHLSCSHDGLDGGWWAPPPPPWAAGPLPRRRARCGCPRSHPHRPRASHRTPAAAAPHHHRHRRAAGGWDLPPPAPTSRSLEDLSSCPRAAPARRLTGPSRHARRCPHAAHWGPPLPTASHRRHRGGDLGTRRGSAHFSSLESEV

[35] = Volume of distribution at steady state in CD-1 mouse at 1 mg/kg, iv administered as 5 mins infusion; assay type: ADME, organism-based; conditions: in vivo, read-out: Vdss
[36] = Half life in Beagle dog at 1 mg/kg, iv administered as 5 mins infusion; assay type: ADME, organism-based, Canis lupus familiaris; conditions: in vivo
[37] = molecular target: T2, Cytochrome P450 2C8; assay: Inhibition of CYP2C8 in human liver microsomes; assay type: ADME
[38] = Half life in cynomolgus monkey liver microsomes; assay type: ADME, Macaca fascicularis, microsome
[39] = system: Rhesus monkey; assay: AUC (0 to 24 hrs) in monkey at 36 mg/kg, iv assessed as BMS-986169 level in plasma; assay type: ADME, organism-based, Macaca mulatta; design: dose 36 mg/kg, time < 24 hr, route intravenous; conditions: in vivo
[40] = Half life in mouse liver microsomes; assay type: ADME, microsome
[41] = Clearance in cynomolgus monkey at 1 mg/kg, iv administered as 5 mins infusion; assay type: ADME, organism-based, Macaca fascicularis; conditions: in vivo
[42] = AUClast in CD-1 mouse at 1 mg/kg, iv administered as 5 mins infusion; assay type: ADME, organism-based; design: dose 1 mg/kg, time 0 - last, route intravenous; conditions: in vivo
[43] = Half life in Sprague-Dawley rat at 1 mg/kg, iv administered as 5 mins infusion; assay type: ADME, organism-based; conditions: in vivo
[44] = Half life in CD-1 mouse at 1 mg/kg, iv administered as 5 mins infusion; assay type: ADME, organism-based; conditions: in vivo
[45] = Prodrug activation in rat assessed as BMS-986169 level in blood at 37 degC; assay type: tissue-based
[46] = molecular target: Adrenergic receptor alpha-1 (Homo sapiens) (UniProt P35348+P25100+P35368); assay: Inhibition of human adrenergic alpha 1 receptor; assay type: protein assay
[47] = molecular target: T7, Cytochrome P450 1A2; assay: Inhibition of CYP1A2 in human liver microsomes; assay type: ADME
[48] = Half life in human liver microsomes; assay type: ADME, microsome
[49] = Oral bioavailability in rat at 5 mg/kg; assay type: ADME, organism-based; conditions: in vivo
[50] = Fraction unbound in mouse plasma; assay type: ADME, cell-free
[51] = Volume of distribution at steady state in Sprague-Dawley rat at 1 mg/kg, iv administered as 5 mins infusion; assay type: ADME, organism-based; conditions: in vivo, read-out: Vdss
[52] = molecular target: Glutamate receptor ionotropic, NMDA 2B (Homo sapiens, UniProt Q05586+Q13224); assay: Negative allosteric modulation of human GluN2B receptor expressed in Xenopus laevis oocytes assessed as inhibition of glutamate/glycine-induced channel current after 15 to 20 mins by two electrode voltage clamp based electrophysiology assay; assay type: cell-based
[53] = system: Mus musculus; assay: Ex vivo receptor occupancy at GluN2B receptor in CD-1 mouse forebrain membranes assessed as reduction in [3H]Ro 25-6981 receptor labeling at 1 mg/kg, iv incubated for 5 mins by topcount micro scintillation counting method; assay type: functional
[54] = Volume of distribution at steady state in Beagle dog at 1 mg/kg, iv administered as 5 mins infusion; assay type: ADME, organism-based, Canis lupus familiaris; conditions: in vivo, read-out: Vdss
[55] = Volume of distribution at steady state in cynomolgus monkey at 1 mg/kg, iv administered as 5 mins infusion; assay type: ADME, organism-based, Macaca fascicularis; conditions: in vivo, read-out: Vdss
[56] = Half life in dog liver microsomes; assay type: ADME, Canis lupus familiaris, microsome
[57] = Prodrug activation in cynomolgus monkey assessed as BMS-986169 level in plasma at 1.2 mg/kg, iv measured 10 mins post dose; assay type: organism-based, Macaca fascicularis; conditions: in vivo
[58] = Clearance in Sprague-Dawley rat at 1 mg/kg, iv administered as 5 mins infusion; assay type: ADME, organism-based; conditions: in vivo
[59] = AUClast in Sprague-Dawley rat at 1 mg/kg, iv administered as 5 mins infusion; assay type: ADME, organism-based; design: dose 1 mg/kg, route intravenous, time 0 - last; conditions: in vivo
[60] = molecular target: Glutamate receptor ionotropic, NMDA 2B (Homo sapiens, UniProt Q13224); assay: Binding affinity to GluN2B receptor in human cortex
[61] = Fraction unbound in dog plasma; assay type: ADME, cell-free, Canis lupus familiaris
[62] = AUClast in Beagle dog at 1 mg/kg, iv administered as 5 mins infusion; assay type: ADME, organism-based, Canis lupus familiaris; design: dose 1 mg/kg, time 0 - last, route intravenous; conditions: in vivo
[63] = system: Salmonella typhimurium; assay: Mutagenicity in Salmonella typhimurium by Ames test; assay type: toxicity, organism-based; conditions: salmonella enterica subsp. enterica serovar typhimurium
[64] = Ratio of drug uptake in CD-1 mouse brain to plasma at 0.1 to 1 mg/kg, iv; assay type: ADME, organism-based; conditions: read-out: BPR

TDI [1]: Not Active
TDI [2]: Not Active
TDI [3]: Not Active
Drug metabolism [4]: Metabolite_Detected
IC50 [5]: > 18 µM
IC50 [6]: > 18 µM
fraction unbound [7]: 0.11
half-life [8]: 2.7 min
pKa [9]: 4.4
TDI [10]: Not Active
TDI [11]: Not Active
TDI [12]: Not Active
inhibition [13]: -2.4%
IC50 [14]: > 18 µM
solubility [16]: 2 µg/mL (≈ 5.23 µM)
half-life [17]: 90 min
IC50 [18]: > 18 µM
clearance [19]: 75 mL/min/kg
Drug metabolism [20]: Metabolite_Detected
logD [21]: 2.9
AUC(0-t) at 5 min [22]: 2.7 µM·h
IC50 [23]: > 18 µM
concentration [24]: 270 to 1100 nM
Drug metabolism [25]: Metabolite_Detected
inhibition [26]: 8.6%
clearance [27]: 17 mL/min/kg
fraction unbound [28]: 0.09
TDI [30]: Not Active
Cp(f) [31]: <= 19 uM
fraction unbound [32]: 0.06
Ki [33]: 0.0042 µM
inhibition [34]: 7%
Vd [35]: 8.2 L/kg
half-life [36]: 126 min
IC50 [37]: > 18 µM
half-life [38]: 12 min
AUC [39]: 88 µM·h
half-life [40]: 3.5 min
clearance [41]: 15 mL/min/kg
AUC(0-t) at 5 min [42]: 0.53 µM·h
half-life [43]: 54 min
half-life [44]: 216 min
Drug metabolism [45]: Metabolite_Detected
inhibition [46]: inactive
IC50 [47]: > 18 µM
half-life [48]: 25 min
bioavailability [49]: 2.5%
fraction unbound [50]: 0.12
Vd [51]: 2.3 L/kg
IC50 [52]: 0.024 µM
Vd [54]: 2.1 L/kg
Vd [55]: 1.7 L/kg
half-life [56]: 6 min
Drug metabolism [57]: Metabolite_Detected
clearance [58]: 54 mL/min/kg
AUC(0-t) at 5 min [59]: 1.3 µM·h
Ki [60]: 0.0063 µM
fraction unbound [61]: 0.07
AUC(0-t) at 5 min [62]: 2.5 µM·h
Kp [64]: 2.8
Structure (SMILES): Cc1ccc(CN2CC[C@@H](N3CC[C@@H](c4ccc(O)cc4)[C@H](F)C3)C2=O)cc1
Occ [15]: 95%
Activity [29]: Non-Toxic
Occ [53]: 73%
Activity [63]: Non-Toxic
